In the supplement of paper PMC4862054:

How the values were obtained:
Conditions in all cases: incubation time: 72 h
MCF-10A [1] = assay: drug sensitivity score (DSS), CellTox Green (DSS (AUC-based score)); higher = stronger drug effect (viability inhibition or cytotoxicity); extreme values may be limits of the assay
Method in brief: (§1)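 For 72 h, breast cancer cell lines seeded at 20 µl suspension per well in 384-well plates were incubated with compound at 5 concentrations in 10-fold steps spanning a 10,000-fold range that differed by compound. The first reading was CellTox Green fluorescence at 485/520 nm, and the second was CellTiter-Glo luminescence after 10 min at room temperature. Both were normalised per plate to 0.1 % DMSO and a positive kill control, and the drug sensitivity score was obtained from the area under the fitted dose-response curve.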

CAL-120 [2] = assay: as above
Method in brief: as §1

BT-474 [3] = assay: as above
Method in brief: as §1

MDA-MB-436 = assay: as above
Method in brief: as §1

BT-549 = assay: as above
Method in brief: as §1

DU-4475 = assay: as above
Method in brief: as §1

CAL-148 [4] = assay: as above
Method in brief: as §1

HCC1599 = assay: as above
Method in brief: as §1

CAL-85-1 = assay: as above
Method in brief: as §1

CAL-51 = assay: as above
Method in brief: as §1

MDA-MB-468 [5] = assay: as above
Method in brief: as §1

MFM-223 [6] = assay: as above
Method in brief: as §1

HCC1143 = assay: as above
Method in brief: as §1

HDQ-P1 = assay: as above
Method in brief: as §1

MDA-MB-453 [7] = assay: as above
Method in brief: as §1

MCF-10A [8] = assay: drug sensitivity score (DSS), CellTiter-Glo (DSS (AUC-based score)); higher = stronger drug effect (viability inhibition or cytotoxicity); extreme values may be limits of the assay
Method in brief: as §1

MDA-MB-231 = assay: as above
Method in brief: as §1

CAL-120 [9] = assay: as above
Method in brief: as §1

BT-474 [10] = assay: as above
Method in brief: as §1

HCC1937 = assay: as above
Method in brief: as §1

CAL-148 [11] = assay: as above
Method in brief: as §1

MDA-MB-468 [12] = assay: as above
Method in brief: as §1

MFM-223 [13] = assay: as above
Method in brief: as §1

MDA-MB-453 [14] = assay: as above
Method in brief: as §1

SMILES | drug sensitivity score (MCF-10A [1]) | drug sensitivity score (CAL-120 [2]) | drug sensitivity score (BT-474 [3]) | drug sensitivity score (MDA-MB-436) | drug sensitivity score (BT-549) | drug sensitivity score (DU-4475) | drug sensitivity score (CAL-148 [4]) | drug sensitivity score (HCC1599) | drug sensitivity score (CAL-85-1) | drug sensitivity score (CAL-51) | drug sensitivity score (MDA-MB-468 [5]) | drug sensitivity score (MFM-223 [6]) | drug sensitivity score (HCC1143) | drug sensitivity score (HDQ-P1) | drug sensitivity score (MDA-MB-453 [7]) | drug sensitivity score (MCF-10A [8]) | drug sensitivity score (MDA-MB-231) | drug sensitivity score (CAL-120 [9]) | drug sensitivity score (BT-474 [10]) | drug sensitivity score (HCC1937) | drug sensitivity score (CAL-148 [11]) | drug sensitivity score (MDA-MB-468 [12]) | drug sensitivity score (MFM-223 [13]) | drug sensitivity score (MDA-MB-453 [14])
CN1CCC(COc2cnc(-c3cccc(Cn4nc(-c5cccc(C#N)c5)ccc4=O)c3)nc2)CC1 | 0 | 0 | 0 | 0 | 0 | 0 | 0 | 0 | 0.655 | 0 | 0 | 0 | 0 | 0 | 0 | 0 | 0 | 0 | 0 | 0 | 0 | 0 | 0 | 0
CN(C)C/C=C/C(=O)Nc1cc2c(Nc3ccc(F)c(Cl)c3)ncnc2cc1O[C@H]1CCOC1 [Afatinib] | 0 | 0 | 3.66 | 0 | 0 | 0 | 0 | 0 | 8 | 0 | 0 | 0 | 1.18 | 0 | 0 | 17.4 | 0 | 0 | 0 | 0 | 3.9 | 2.66 | 0 | 4.69
COc1cc(Nc2ncc3c(n2)-c2ccc(Cl)cc2C(c2c(F)cccc2OC)=NC3)ccc1C(=O)O [Alisertib] | 3.47 | 0 | 2.03 | 0 | 5.31 | 0 | 9.1 | 0 | 1.48 | 27.9 | 32.7 | 0 | 0 | 0 | 0 | 0 | 4.67 | 5.92 | 8.02 | 3.43 | 7.08 | 23.4 | 10.8 | 0
CN1CC[C@H](c2c(O)cc(O)c3c(=O)cc(-c4ccccc4Cl)oc23)[C@H](O)C1 [Alvocidib] | 16.1 | 1.81 | 0.211 | 0 | 2.81 | 0 | 0 | 0 | 15.3 | 4.44 | 0 | 7.92 | 0 | 7.43 | 0 | 16.2 | 19.1 | 14.1 | 16.9 | 13.2 | 11.4 | 18.1 | 16.1 | 12.8
